Our source for the IC50 values is US9649308B2, “Benzamide-containing compounds and their use in the treatment of pain” (H. Lundbeck A/S, priority 2012, dated 2017).

In general, IC50 refers to the point on the concentration scale where inhibition reaches its midpoint. A higher IC50 goes with a need for much substance.

The target of the test is human P2X7 receptor (Homo sapiens (Human), UniProt Q99572). Nature of the test: P2X7 FLIPR antagonist assay (BzATP-stimulated, 293 HEK cells stably expressing P2X7 receptor). Format: cell-based. Particulars: Table 1, exemplified IC50 values; antagonist activity vs BzATP. How it is done:
This example illustrates representative assays for use in evaluating the test compounds for antagonist activity. Compounds of the present invention were tested in vitro for their ability to act as antagonists to the P2X7 receptor.
Cells were plated to cell density of approximately 15,000 cells/well in 384-well assay plates (50 μl/well) with 1.5% low serum media (DMEM, 1.5% BCS, 1% L-glut (2 mM), 1% P/S).
Cells were plated to cell density of approximately 15,000 cells/well in 384-well assay plates (50 μl/well) with 1.5% low serum media (DMEM, 1.5% FBS, 1% L-glut (2 mM), 10 mM HEPES, 1% P/S). Cells were plated 24 hours prior to assay. Cells expressing human, rat or mouse P2X7 receptor were assayed in the following manner.
Fluo-4 NW dye mix (Molecular Probes, Inc., Eugene, Oreg., USA) was prepared in buffer (see manufacturer's instructions). Cell plates were removed from the 37° C. incubator, the media discarded and then 30 μL of dye was added to each well. Plates were placed in the 37° C., non-CO2 incubator for 30 minutes and then room temperature for 30 minutes.
B) Agonist only mixture was prepared with BzATP at a single concentration in buffer (concentration determined by dose response).
Compound mixtures (A) were added to assay plates containing cells and placed at room temperature for 30 minutes, then BzATP (B) was added. Fluorescence was read using the Tetra FLIPR® (Molecular Devices, Inc., Sunnyvale, Calif., USA) and IC50 values were calculated by standard methods to determine antagonist activity.

Chain of human P2X7 receptor (Q99572 whole entry): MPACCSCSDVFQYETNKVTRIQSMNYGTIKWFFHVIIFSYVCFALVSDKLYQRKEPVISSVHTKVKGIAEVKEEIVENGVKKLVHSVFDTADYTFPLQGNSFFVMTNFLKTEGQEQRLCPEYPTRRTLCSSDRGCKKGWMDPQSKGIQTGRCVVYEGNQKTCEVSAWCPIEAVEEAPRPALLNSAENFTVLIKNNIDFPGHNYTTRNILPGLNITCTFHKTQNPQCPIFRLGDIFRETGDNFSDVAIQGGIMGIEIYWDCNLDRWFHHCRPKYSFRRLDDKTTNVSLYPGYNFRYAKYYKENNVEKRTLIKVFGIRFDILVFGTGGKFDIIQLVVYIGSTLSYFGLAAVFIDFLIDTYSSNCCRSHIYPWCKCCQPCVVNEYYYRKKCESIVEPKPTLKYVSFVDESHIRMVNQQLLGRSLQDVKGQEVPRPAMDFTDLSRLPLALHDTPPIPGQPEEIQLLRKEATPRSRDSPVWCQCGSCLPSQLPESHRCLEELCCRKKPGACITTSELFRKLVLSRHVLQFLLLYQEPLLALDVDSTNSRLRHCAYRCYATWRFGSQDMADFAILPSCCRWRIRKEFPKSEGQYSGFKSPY

`Cc1ncc(C(CNC(=O)c2cccc(Cl)c2Cl)c2ccncc2)cn1` (stereo not shown) [2,3-dichloro-N-[2-(2-methylpyrimidin-5-yl)-2-(4-pyridyl)ethyl]benzamide] gave an IC50 of 50 nM.

Turning to `O=C(NCC(CC1CC1)c1ccc(C(F)F)nc1)c1cccc(Cl)c1Cl` (single isomer, unassigned; (-)) [(−)2,3-dichloro-N-[3-cyclopropyl-2-[6-(difluoromethyl)-3-pyr] [(−)2,3-dichloro-N-[3-cyclopropyl-2-[6-(difluoromethyl)-3-pyridyl]propyl]benzamide], the IC50 was 1.9 nM.

With `Cc1ncc(C(CNC(=O)c2c(F)cccc2Cl)c2ccncc2)cn1` (stereo not shown) [2-chloro-6-fluoro-N-[2-(2-methylpyrimidin-5-yl)-2-(4-pyridyl)ethyl]benzamide], inhibition was half-maximal at 640 nM (IC50).

Compound `O=C(NCC1(c2cnc(C(F)(F)F)nc2)CCOCC1)c1ccccc1Cl` [2-chloro-N-[[4-[2-(trifluoromethyl)pyrimidin-5-yl]tetrahydropyran-4-yl]methyl]benzamide] registered an IC50 of 4400 nM.

`Cc1ncc(C(CNC(=O)c2cccc(Cl)c2Cl)C2CCC(F)(F)CC2)cn1` (single isomer, unassigned; (-)) [(−)2,3-dichloro-N-[2-(4,4-difluorocyclohexyl)-2-(2-methylpyr] [(−)2,3-dichloro-N-[2-(4,4-difluorocyclohexyl)-2-(2-methylpyrimidin-5-yl)ethyl]benzamide] showed an IC50 of 16 nM.

In the case of `Cc1ncc(C(CNC(=O)c2cccc(Cl)c2Cl)C2CCC(F)(F)CC2)cn1` (single isomer, unassigned; (+)) [(+)2,3-dichloro-N-[2-(4,4-difluorocyclohexyl)-2-(2-methylpyr] [(+)2,3-dichloro-N-[2-(4,4-difluorocyclohexyl)-2-(2-methylpyrimidin-5-yl)ethyl]benzamide], half-maximal inhibition (IC50) was put at 8.4 nM.

The compound `Cc1ncc(C2(C(C)NC(=O)c3c(F)cccc3Cl)CCOCC2)cn1` (stereo not shown) [2-chloro-6-fluoro-N-[1-[4-(2-methylpyrimidin-5-yl)tetrahydropyran-4-yl]ethyl]benzamide] showed a concentration for half-maximal inhibition (IC50) of 55 nM.
